What is called EC50 is the concentration giving half of the maximal effect.

A value given as a limit tells only on which side of the number the result lay.

We go through 19 compounds from US12577206B2 (BRISTOL-MYERS SQUIBB COMPANY, priority 2020, dated 2026).

In one assay the target is T1, human FPR2 (Homo sapiens, UniProt P25090).
T1 sequence (P25090 1-351): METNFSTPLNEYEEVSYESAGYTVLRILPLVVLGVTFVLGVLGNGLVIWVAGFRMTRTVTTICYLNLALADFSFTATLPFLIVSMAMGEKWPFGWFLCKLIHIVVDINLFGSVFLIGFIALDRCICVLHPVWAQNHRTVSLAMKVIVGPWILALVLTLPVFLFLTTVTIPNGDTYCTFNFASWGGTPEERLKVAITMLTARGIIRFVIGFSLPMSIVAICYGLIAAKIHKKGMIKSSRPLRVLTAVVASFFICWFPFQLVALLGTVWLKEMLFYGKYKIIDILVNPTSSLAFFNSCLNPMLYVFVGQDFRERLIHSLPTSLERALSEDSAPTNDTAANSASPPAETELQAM
Description: FPR2 cyclic adenosine monophosphate (cAMP) assay. The format is cell-based. The settings on record: CHO cells overexpressing human FPR2; forskolin 5 μM; inhibition of cAMP production; HTRF; read-out: hFPR2 cAMP2 EC50. A digest of the protocol:
(§1)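 CHO/hFPR1 4,000 cells/well, forskolin 10 μM final; CHO/hFPR2 2,000 cells/well, forskolin 5 μM final. IBMX 200 μM, DMSO 1%, DPBS + Ca/Mg + 0.1% BSA, 30 min rt. HTRF cAMP; 4-PL fit.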
Background: Cyclic AMP is a second messenger, typically raised through Gs and lowered through Gi signalling.

For another assay, the target named is T2, human FPR1 (Homo sapiens, UniProt P21462).
T2 sequence (P21462 1-350): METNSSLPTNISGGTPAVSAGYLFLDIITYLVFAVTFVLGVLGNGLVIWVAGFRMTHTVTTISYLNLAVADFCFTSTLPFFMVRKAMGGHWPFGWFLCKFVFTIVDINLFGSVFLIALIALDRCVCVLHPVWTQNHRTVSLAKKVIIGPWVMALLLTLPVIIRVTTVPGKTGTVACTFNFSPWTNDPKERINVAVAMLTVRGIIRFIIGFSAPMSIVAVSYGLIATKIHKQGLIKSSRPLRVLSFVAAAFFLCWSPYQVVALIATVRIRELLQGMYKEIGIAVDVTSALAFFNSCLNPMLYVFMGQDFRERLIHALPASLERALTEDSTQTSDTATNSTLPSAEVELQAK
In words: FPR1 cyclic adenosine monophosphate (cAMP) assay. The format is cell-based. The note with it: CHO cells overexpressing human FPR1; forskolin 10 μM; inhibition of cAMP production; HTRF; read-out: hFPR1 cAMP2 EC50. A digest of the protocol: as §1

As for `COc1cc(N2C[C@H]3C[C@@H]2CN3C)nc(-n2c(=O)c(NC(=O)c3ccc(OC(F)F)cc3)c(-c3c(F)cc(OC)cc3F)n2C)c1` [Example 354, N-(5-(2,6-Difluoro-4-methoxyphenyl)-2-(4-methoxy-6-((1R,4R)-5-methyl-2,5-diazabicyclo[2.2.1]heptan-2-yl)pyridin-2-yl)-1-methyl-3-oxo-2,3-dihydro-1H-pyrazol-4-yl)-4-(difluoromethoxy)benzamide], the EC50 is 2 nM on human FPR2 and > 10000 nM at human FPR1.

Regarding `COc1cc(C2CCOCC2)nc(-n2c(=O)c(NC(=O)c3ccc(OC(F)F)cc3)c(-c3c(F)cc(OC)cc3F)n2C)c1` [Example 345, N-(5-(2,6-Difluoro-4-methoxyphenyl)-2-(4-methoxy-6-(tetrahydro-2H-pyran-4-yl)pyridin-2-yl)-1-methyl-3-oxo-2,3-dihydro-1H-pyrazol-4-yl)-4-(difluoromethoxy)benzamide], the results for the EC50 at human FPR2 and at human FPR1 were 5 nM and > 10000 nM, respectively.

`COc1cc(F)c(-c2c(NC(=O)c3ccc(OC(F)F)cc3)c(=O)n(-c3ccc(C4CC4)cn3)n2C)c(F)c1` [Example 47, N-[2-(5-cyclopropylpyridin-2-yl)-5-(2,6-difluoro-4-methoxyphenyl)-1-methyl-3-oxo-2,3-dihydro-1H-pyrazol-4-yl]-4-(difluoromethoxy)benzamide]: the figures for the EC50 on human FPR2 and at human FPR1 were 6 nM and 460 nM, respectively.

On to `COc1cc(F)c(-c2c(NC(=O)c3ccc(OC(F)F)cc3)c(=O)n(-c3nc(N4CC(C)(O)C4)ccc3C#N)n2C)c(F)c1` [Example 311, N-{2-[3-cyano-6-(3-hydroxy-3-methylazetidin-1-yl)pyridin-2-yl]-5-(2,6-difluoro-4-methoxyphenyl)-1-methyl-3-oxo-2,3-dihydro-1H-pyrazol-4-yl}-4-(difluoromethoxy)benzamide], for which the EC50 at human FPR2 was 5 nM; at human FPR1 it was > 10000 nM.

Regarding `COc1cc(F)c(-c2c(NC(=O)c3ccc(OC(F)F)cc3)c(=O)n(-c3ncccc3N3CC(C)(O)C3)n2C)c(F)c1` [Example 211, N-[5-(2,6-difluoro-4-methoxyphenyl)-2-[3-(3-hydroxy-3-methylazetidin-1-yl)pyridin-2-yl]-1-methyl-3-oxo-2,3-dihydro-1H-pyrazol-4-yl]-4-(difluoromethoxy)benzamide], the EC50 on human FPR2 was 12 nM; on human FPR1 it was > 10000 nM.

For the compound `COc1cc(F)c(-c2c(NC(=O)c3ccc(OC(F)F)cc3)c(=O)n(-c3nc(NC(C)(C)CO)ccc3C(F)(F)F)n2C)c(F)c1` [Example 256, N-[5-(2,6-difluoro-4-methoxyphenyl)-2-{6-[(1-hydroxy-2-methylpropan-2-yl)amino]-3-(trifluoromethyl)pyridin-2-yl}-1-methyl-3-oxo-2,3-dihydro-1H-pyrazol-4-yl]-4-(difluoromethoxy)benzamide], the EC50 at human FPR2 is 3 nM; at human FPR1, > 10000 nM.

For `COc1cc(F)c(-c2c(NC(=O)c3ccc(OC(F)F)cc3)c(=O)n(-c3cc(Cl)ccc3Cl)n2C)c(F)c1` [Example 176, N-[2-(2,5-dichlorophenyl)-5-(2,6-difluoro-4-methoxyphenyl)-1-methyl-3-oxo-2,3-dihydro-1H-pyrazol-4-yl]-4-(difluoromethoxy)benzamide], the EC50 at human FPR2 was 9 nM; at human FPR1, > 10000 nM.

With `COc1cc(F)c(-c2c(NC(=O)c3ccc(OC(F)F)cc3)c(=O)n(-c3cccc(Cl)n3)n2C)c(F)c1` [Example 39, N-[2-(6-chloropyridin-2-yl)-5-(2,6-difluoro-4-methoxyphenyl)-1-methyl-3-oxo-2,3-dihydro-1H-pyrazol-4-yl]-4-(difluoromethoxy)benzamide], the values for the EC50 on human FPR2 and at human FPR1 were 14 nM and 3000 nM, respectively.

For `COc1cc(F)c(-c2c(NC(=O)c3ccc(OC(F)F)cc3)c(=O)n(-c3cccc(CN4CCN(C)CC4)n3)n2C)c(F)c1` [Example 205, N-[5-(2,6-difluoro-4-methoxyphenyl)-1-methyl-2-{6-[(4-methylpiperazin-1-yl)methyl]pyridin-2-yl}-3-oxo-2,3-dihydro-1H-pyrazol-4-yl]-4-(difluoromethoxy)benzamide], the EC50 at human FPR2 is 25 nM; on human FPR1, > 10000 nM.

`COc1cc(F)c(-c2c(NC(=O)c3ccc(OC(F)F)cc3)c(=O)n(-c3nc(OCCO)ccc3C(F)(F)F)n2C)c(F)c1` [Example 285, N-[5-(2,6-difluoro-4-methoxyphenyl)-2-[6-(2-hydroxyethoxy)-3-(trifluoromethyl)pyridin-2-yl]-1-methyl-3-oxo-2,3-dihydro-1H-pyrazol-4-yl]-4-(difluoromethoxy)benzamide]: the values for the EC50 on human FPR2 and at human FPR1 were 2 nM and > 10000 nM, respectively.

`COc1cc(F)c(-c2c(NC(=O)c3ccc(OC(F)F)cc3)c(=O)n(-c3nc(N[C@H](C)C4CC4)ccc3C(F)(F)F)n2C)c(F)c1` [Example 243, N-[2-(6-{[(1R)-1-cyclopropylethyl]amino}-3-(trifluoromethyl)pyridin-2-yl)-5-(2,6-difluoro-4-methoxyphenyl)-1-methyl-3-oxo-2,3-dihydro-1H-pyrazol-4-yl]-4-(difluoromethoxy)benzamide]: the EC50 on human FPR2 was 6 nM; on human FPR1 it was > 10000 nM.

Regarding `COc1cc(F)c(-c2c(NC(=O)c3ccc(OC(F)F)cc3)c(=O)n(-c3cncc(C)n3)n2C)c(F)c1` [Example 61, N-[5-(2,6-difluoro-4-methoxyphenyl)-1-methyl-2-(6-methylpyrazin-2-yl)-3-oxo-2,3-dihydro-1H-pyrazol-4-yl]-4-(difluoromethoxy)benzamide], the EC50 at human FPR2 was determined as 11 nM; at human FPR1, 1600 nM.

For `COc1cc(F)c(-c2c(NC(=O)c3ccc(OC(F)(F)F)cc3)c(=O)n(-c3ncccc3Cl)n2C)c(F)c1` [Example 41, N-[2-(3-chloropyridin-2-yl)-5-(2,6-difluoro-4-methoxyphenyl)-1-methyl-3-oxo-2,3-dihydro-1H-pyrazol-4-yl]-4-(trifluoromethoxy)benzamide], the EC50 at human FPR2 was determined as 7 nM; on human FPR1 it was 2100 nM.

On to `COc1cc(C)nc(-n2c(=O)c(NC(=O)c3ccc(OC(F)F)cc3)c(-c3c(F)cc(OC)cc3F)n2C)c1` [Example 376, N-(5-(2,6-Difluoro-4-methoxyphenyl)-2-(4-methoxy-6-methylpyridin-2-yl)-1-methyl-3-oxo-2,3-dihydro-1H-pyrazol-4-yl)-4-(difluoromethoxy)benzamide], for which the EC50 is 5 nM on human FPR2 and > 10000 nM at human FPR1.

In the case of `COc1cc(F)c(-c2c(NC(=O)c3ccc(OC(F)F)cc3)c(=O)n(-c3cc(C)cc(OCCO)n3)n2C)c(F)c1` [Example 331, N-(5-(2,6-Difluoro-4-methoxyphenyl)-2-(6-(2-hydroxyethoxy)-4-methylpyridin-2-yl)-1-methyl-3-oxo-2,3-dihydro-1H-pyrazol-4-yl)-4-(difluoromethoxy)benzamide], the 50% effective concentration (EC50) on human FPR2 is 3 nM; at human FPR1, > 10000 nM.

`COc1cc(F)c(-c2c(NC(=O)c3ccc(OC(F)F)cc3)c(=O)n(-c3cccc(N(C)C)n3)n2C)c(F)c1` [Example 82, N-[5-(2,6-difluoro-4-methoxyphenyl)-2-[6-(dimethylamino)pyridin-2-yl]-1-methy-3-oxo-2,3-dihydro-1H-pyrazol-4-yl]-4-(difluoromethoxy)benzamide]: the values for the EC50 on human FPR2 and on human FPR1 were 2 nM and 520 nM, respectively.

For the compound `COc1cc(OCCS(C)(=O)=O)nc(-n2c(=O)c(NC(=O)c3ccc(OC(F)F)cc3)c(-c3c(F)cc(OC)cc3F)n2C)c1` [Example 335, N-(5-(2,6-Difluoro-4-methoxyphenyl)-2-(4-methoxy-6-(2-(methylsulfonyl)ethoxy)pyridin-2-yl)-1-methyl-3-oxo-2,3-dihydro-1H-pyrazol-4-yl)-4-(difluoromethoxy)benzamide], the figures for the EC50 on human FPR2 and at human FPR1 were 3 nM and > 10000 nM, respectively.

`COc1cc(F)c(-c2c(NC(=O)c3ccc(OC(F)F)cc3)c(=O)n(-c3cccc(C#N)c3)n2C)c(F)c1` [Example 110, N-[2-(3-cyanophenyl)-5-(2,6-difluoro-4-methoxyphenyl)-1-methyl-3-oxo-2,3-dihydro-1H-pyrazol-4-yl]-4-(difluoromethoxy)benzamide]: the results for the EC50 at human FPR2 and on human FPR1 were 9 nM and 37 nM, respectively.

As for `COc1cc(F)c(-c2c(NC(=O)c3ccc(OC(F)F)cc3)c(=O)n(-c3nccc(C)c3Cl)n2C)c(F)c1` [Example 180, N-[2-(3-chloro-4-methylpyridin-2-yl)-5-(2,6-difluoro-4-methoxyphenyl)-1-methyl-3-oxo-2,3-dihydro-1H-pyrazol-4-yl]-4-(difluoromethoxy)benzamide], the figures for the EC50 on human FPR2 and at human FPR1 were 8 nM and > 10000 nM, respectively.
